The test system of data set [1] is Enterococcus faecium L 4001. The data set can be described thus: Minimum inhibitory concentration (MIC), liquid dilution test. The following applies: L4001, Müller Hinton broth, 37° C., 18-24 hours, 8-10% of CO2. The data set is classed as cell-based. Here is the method: (§1) Determination of the Minimum Inhibitory Concentration (MIC): The MIC is determined in the liquid dilution test. Overnight cultures of the test microorganisms are diluted 1:5 000 or S. aureus 133 is diluted 1:10 000 in Müller Hinton broth (manufacturer: BBL) and incubated with dilutions of the test substances (dilution stages 1:2). Exceptions are the tests with S. pyogenes Wacker and S. pneumoniae 1707/4, which are carried out in Müller Hinton broth plus 20% bovine serum. The cultures are incubated at 37° C. for 18-24 hours; enterococci and streptococci in the presence of 8-10% of CO2. The lowest substance concentration in each case at which visible bacterial growth no longer takes place is defined as the MIC. […] The compounds show very good antibacterial action against most of the test microorganisms and thus a broad Gram-positive action.

In data set [2] the test system is Enterococcus faecalis ICB 27159. Described as above. The data set is classed as cell-based. The settings on record: ICB27159, Müller Hinton broth, 37° C., 18-24 hours, 8-10% of CO2. Here is the method:
as §1

For data set [3], the system named is Streptococcus pyogenes Wacker. Described as above. The format is cell-based. The following applies: Müller Hinton broth plus 20% bovine serum, 37° C., 18-24 hours, 8-10% of CO2. Here is the method:
as §1

Data set [4] has as its system Staphylococcus aureus 133. The description is as above. The following applies: Müller Hinton broth, overnight culture diluted 1:10 000, 37° C., 18-24 hours. The format is cell-based. Here is the method: as §1
Data set [5] has as its system Streptococcus pneumoniae 1707/4. Described as above. The data set is classed as cell-based. The settings on record: Müller Hinton broth plus 20% bovine serum, 37° C., 18-24 hours, 8-10% of CO2. How it is done:
as §1

For data set [6] the following is noted: amide bond, EDC/pentafluorophenol (Pfp ester), then HCl/dioxane, then aq. NaHCO3, dichloromethane, 25.0 °C, 3 steps.

In brackets after ≈: the same amount, converted by molar mass. Where two headings read alike, the source gives them in different places. Positions of bridges follow the written chain, without caps; N, C: chain ends. Non-standard residues stand in square brackets, D forms with d. Residues, ends and D or L forms follow the SMILES beside them. ξ: configuration not given here. *: point of attachment. Phe(3,5-F2) = N[C@@H](Cc1cc(F)cc(F)c1)C(=O)O; Phe(3-Cl) = N[C@@H](Cc1cccc(Cl)c1)C(=O)O; ξPhe(3,5-F2) = NC(Cc1cc(F)cc(F)c1)C(=O)O; Pro(4R-Me) = C[C@H]1CN[C@H](C(=O)O)C1; Phe(2-F) = N[C@@H](Cc1ccccc1F)C(=O)O; Heptenoyl(2E) = CCCC/C=C/C(=O)*; NMeS = CN[C@@H](CO)C(=O)O; X4 = O=C(/C=C/C1CC=CCC1)*; NMeA = CN[C@@H](C)C(=O)O; X1 = CC(C)/C=C(\F)C(=O)*; X5 = CCCC(C)/C=C/C(=O)*; X2 = CCCCC/C=C/C(=O)*; ξPip = O=C(O)C1CCCCN1; X3 = O=C(C=C1CCC1)*

Regarding `C=CCC/C=C/C(=O)N[C@@H](Cc1cc(F)cc(F)c1)C(=O)N[C@H]1COC(=O)[C@@H]2C[C@@H](C)CN2C(=O)[C@H](C)NC(=O)[C@@H]2CCCCN2C(=O)[C@@H]2CCCN2C1=O` [Example 79], the MIC (commonly the least concentration at which growth counts as inhibited) in data set [1] is less than 0.125 µg/mL; in data set [2], less than 0.125 µg/mL; in data set [3], 1 µg/mL; in data set [4], 0.25 µg/mL (≈ 0.325 µM); in data set [5] it was 0.5 µg/mL.
For `CCCC(C)/C=C/C(=O)N[C@@H](Cc1cc(F)cc(F)c1)C(=O)N[C@H]1COC(=O)[C@@H]2CCCN2C(=O)[C@H](C)NC(=O)[C@H](C)N(C)C(=O)[C@@H]2CCCN2C1=O` (stereo partly drawn) [Example 75] (X5-[Phe(3,5-F2)]SP[NMeA]AP; ester 2-C), the MIC in data set [1] is less than 0.125 µg/mL; in data set [2], less than 0.125 µg/mL; in data set [3] it was 0.25 µg/mL; in data set [4], 0.5 µg/mL (≈ 0.671 µM); in data set [5] it was less than 0.125 µg/mL.
`C[C@@H]1NC(=O)[C@H](C)N(C)C(=O)[C@@H]2CCCN2C(=O)[C@@H](NC(=O)OCc2ccccc2)COC(=O)[C@@H]2CCCN2C1=O`: the ring closure, yield of all isomers in data set [6] (from C[C@H](NC(=O)[C@H](C)N(C)C(=O)[C@@H]1CCCN1C(=O)OC(C)(C)C)C(=O)N1CCC[C@H]1C(=O)OC[C@H](NC(=O)OCc1ccccc1)C(=O)O, 8.9 mM, 2.0 h) was 58%.
Consider `CCCCC/C=C/C(=O)N[C@@H](Cc1cccc(Cl)c1)C(=O)N[C@H]1COC(=O)[C@@H]2CCCN2C(=O)[C@H](C)NC(=O)[C@H](C)N(C)C(=O)[C@@H]2CCCN2C1=O` [Example 32] (X2-[Phe(3-Cl)]SP[NMeA]AP; ester 2-C), for which the MIC amounted to 0.5 µg/mL (≈ 0.673 µM) in data set [1]; 1 µg/mL (≈ 1.35 µM) in data set [2]; 2 µg/mL in data set [3]; 4 µg/mL (≈ 5.38 µM) in data set [4]; 2 µg/mL in data set [5].
As for `CCCC/C=C/C(=O)N[C@@H](Cc1cc(F)cc(F)c1)C(=O)N[C@H]1COC(=O)[C@@H]2CCCN2C(=O)[C@H](C)NC(=O)[C@H](CO)N(C)C(=O)[C@@H]2CCCN2C1=O` [Example 13] ({Heptenoyl(2E)}-[Phe(3,5-F2)]SP[NMeS]AP; ester 2-C), the MIC in data set [1] was less than 0.125 µg/mL; in data set [2], less than 0.125 µg/mL; in data set [3], less than 0.125 µg/mL; in data set [4], 0.25 µg/mL (≈ 0.335 µM); in data set [5], less than 0.125 µg/mL.
Regarding `CCCC/C=C/C(=O)N[C@@H](Cc1cc(F)cc(F)c1)C(=O)N[C@H]1COC(=O)[C@@H]2C[C@@H](C)CN2C(=O)[C@H](C)NC(=O)[C@H](C)N(C)C(=O)[C@@H]2CCCN2C1=O` [Example 6] ({Heptenoyl(2E)}-[Phe(3,5-F2)]SP[NMeA]A[Pro(4R-Me)]; ester 2-C), the minimal inhibitory concentration (MIC) in data set [1] is less than 0.125 µg/mL; in data set [2], less than 0.125 µg/mL; in data set [3], 0.25 µg/mL; in data set [4], less than 0.125 µg/mL; in data set [5], 0.125 µg/mL.
Turning to `C[C@@H]1NC(=O)[C@H](C)N(C)C(=O)[C@@H]2CCCN2C(=O)[C@@H](NC(=O)[C@H](Cc2cc(F)cc(F)c2)NC(=O)C=C2CCC2)COC(=O)[C@@H]2CCCN2C1=O` [Example 85] (X3-[Phe(3,5-F2)]SP[NMeA]AP; ester 2-C), the MIC was found to be 4 µg/mL (≈ 5.6 µM) in data set [1]; 2 µg/mL (≈ 2.8 µM) in data set [2]; 2 µg/mL in data set [3]; 32 µg/mL (≈ 44.8 µM) in data set [4]; 1 µg/mL in data set [5].
`C[C@@H]1NC(=O)[C@H](C)N(C)C(=O)[C@@H]2CCCN2C(=O)[C@@H](NC(=O)[C@H](Cc2ccccc2F)NC(=O)/C=C/C2CC=CCC2)COC(=O)[C@@H]2CCCN2C1=O` (stereo partly drawn) [Example 28] (X4-[Phe(2-F)]SP[NMeA]AP; ester 2-C): the MIC in data set [1] came to 4 µg/mL (≈ 5.43 µM); in data set [2], 8 µg/mL (≈ 10.9 µM); in data set [3] it was 2 µg/mL; in data set [4] it was 8 µg/mL (≈ 10.9 µM); in data set [5], 1 µg/mL.
In data set [6] (from C[C@@H]1C[C@@H](C(=O)OC[C@H](NC(=O)OCc2ccccc2)C(=O)O)N(C(=O)[C@H](C)NC(=O)[C@@H]2CCCCN2C(=O)[C@@H]2CCCN2C(=O)OC(C)(C)C)C1, 2.58 mM, 16.0 h), `C[C@@H]1C[C@H]2C(=O)OC[C@H](NC(=O)OCc3ccccc3)C(=O)N3CCC[C@H]3C(=O)N3CCCC[C@H]3C(=O)N[C@@H](C)C(=O)N2C1` had a ring closure, yield of all isomers of 60%.
Turning to `CCCC/C=C/C(=O)N[C@@H](Cc1cc(F)cc(F)c1)C(=O)N[C@H]1COC(=O)[C@@H]2CCCN2C(=O)[C@H](C)NC(=O)[C@H](C)N(C)C(=O)[C@@H]2CCCN2C1=O` [Example 1, (E)-Hept-2-enoic acid [(S)-2-(3,5-difluorophenyl)-1-((3S,7S,13S,16S,19S)-13,16,17-trimethyl-2,6,12,15,18-pentaoxo-5-oxa-1,11,14,17-tetraazatricyclo[17.3.0.0^7,11]docos-3-ylcarbamoyl)-ethyl]-amide] ({Heptenoyl(2E)}-[Phe(3,5-F2)]SP[NMeA]AP; ester 2-C), the MIC in data set [1] was less than 0.125 µg/mL; in data set [2] it was less than 0.125 µg/mL; in data set [3], 25 µg/mL; in data set [4], 0.25 µg/mL (≈ 0.342 µM); in data set [5], less than 0.125 µg/mL.
With `CC(C)/C=C(\F)C(=O)N[C@@H](Cc1cc(F)cc(F)c1)C(=O)N[C@H]1COC(=O)[C@@H]2CCCN2C(=O)[C@H](C)NC(=O)[C@H](C)N(C)C(=O)[C@@H]2CCCN2C1=O` [Example 84] (X1-[Phe(3,5-F2)]SP[NMeA]AP; ester 2-C), the MIC in data set [1] is 0.5 µg/mL (≈ 0.68 µM); in data set [2], 0.5 µg/mL (≈ 0.68 µM); in data set [3] it was 0.5 µg/mL; in data set [4], 4 µg/mL (≈ 5.44 µM); in data set [5], 0.25 µg/mL.
As to `C[C@@H]1C[C@H]2C(=O)OC[C@H](NC(=O)[C@H](Cc3cc(F)cc(F)c3)NC(=O)CCC3CCCCC3)C(=O)N3CCC[C@H]3C(=O)N3CCCC[C@H]3C(=O)N[C@@H](C)C(=O)N2C1` [Example 3, 3-Cylcohexylpropanoic acid [(S)-2-(3,5-difluorophenyl)-1-((3S,9S,13S,15R,19S,22S)-15,19-Dimethyl-2,8,12,18,21-pentaoxo-11-oxa-1,7,17,20-tetraaza-tetracyclo[20.4.0.0^3,7.0^13,17]hexacos-9-ylcarbamoyl)-ethyl]-amide], the MIC in data set [1] was less than 0.125 µg/mL; in data set [2] it was less than 0.125 µg/mL; in data set [3] it was 0.5 µg/mL; in data set [4] it was 0.5 µg/mL (≈ 0.626 µM); in data set [5], less than 0.125 µg/mL.
Regarding `CCCC/C=C/C(=O)NC(Cc1cc(F)cc(F)c1)C(=O)N[C@H]1COC(=O)[C@@H]2CCCN2C(=O)CNC(=O)C2CCCCN2C(=O)[C@@H]2CCCN2C1=O` (stereo partly drawn) [Example 61] ({Heptenoyl(2E)}-[ξPhe(3,5-F2)]SP[ξPip]GP; ester 2-C), the MIC in data set [1] is 32 µg/mL (≈ 43.1 µM); in data set [2] it was 32 µg/mL (≈ 43.1 µM); in data set [3] it was 16 µg/mL; in data set [4], 64 µg/mL (≈ 86.2 µM); in data set [5], 16 µg/mL.

For the origin of these results see US7405201B2, “Antibacterial macrocycles” (Bayer Healthcare AG, priority 2001, dated 2008).
